# Measured values: patent publication US20240108654A1, “COMBINATION OF A T CELL THERAPY AND A DGK INHIBITOR” (Juno Therapeutics, Inc., priority 2021, published 2024)
# Test system: anti-CD19 CAR-expressing T cells
# Assay: Cytolytic activity of CAR-T cells concurrently treated during chronic stimulation, 3D tumor spheroids
# Type: cell-based, human
# Details: concurrent treatment during chronic stimulation; A549.CD19 and Granta-519 spheroids, day 9
# Description: To simulate conditions of chronic stimulation, approximately 20,000 anti-CD19 CAR-expressing T cells of a combined CAR-T cell composition produced as described in Example 1 from two healthy adult donors were incubated with 30 μg/mL of plate-bound CAR-specific anti-idiotypic antibody (see, e.g., WO2018/023100) at 37° C. for a period of seven days. During this seven-day period, engineered CAR T cells were concurrently treated with Compound 17 (0.1-1000 nM) or a vehicle control added at day 0.
# To further assess activity of chronically stimulated cell, the chronically stimulated CAR-T cells that had been concurrently treated with DGKi were incubated with A549 CD19+ tumor spheroids or Granta-519 tumor spheroids to rechallenge the CAR-T cells at an effector to target ratio of 1:2 for up to 14 days. The tumor spheroids were engineered to express a red fluorescent dye to permit monitoring of tumor cell lysis by microscopy during the assay.
# The antigen-specific cytolytic activity of the chronically stimulated CAR-expressing T cells was assessed by monitoring fluorescence (indicative of tumor cell lysis) over time. The tumor volume (normalized to time zero) was measured as the number of red calibrated units (RCU)×μm^2 area. […] Duplicate values for cell compositions manufactured from the two different healthy donors are shown.
smiles,measurement,value
"CC[C@H]1CN([C@@H](CC)c2ccc(C(F)(F)F)cc2)[C@H](CC)CN1c1nc(=O)n(C)c2ccc(C#N)nc12 [Compound 17, 4-((2S,5R)-2,5-diethyl-4-((S)-1-(4-(trifluoromethyl)phenyl)propyl)piperazin-1-yl)-1-methyl-2-oxo-1,2-dihydropyrido[3,2-d]pyrimidine-6-carbonitrile]",CAR-T cell cytolytic activity (normalized tumor volume),modestly reduced the cytolytic activity
